In ChEMBL document CHEMBL3525904, “Effect of structural variation on aldehyde oxidase-catalyzed oxidation of zoniporide” (Drug Metab Dispos, 2012):

Tests used:
Type in all cases: ADME, subcellular
[1] = target: T1, Aldehyde oxidase (Homo sapiens, UniProt Q06278); assay: Drug level in human liver S9 fraction assessed as aldehyde oxidase-mediated compound formation treated with 10 uM 1-(1H-benzo[d]imidazol-4-yl)-N-carbamimidoyl-5-cyclopropyl-1H-pyrazole-4-carboxamide by spectrometry
T1 sequence (Q06278 whole entry): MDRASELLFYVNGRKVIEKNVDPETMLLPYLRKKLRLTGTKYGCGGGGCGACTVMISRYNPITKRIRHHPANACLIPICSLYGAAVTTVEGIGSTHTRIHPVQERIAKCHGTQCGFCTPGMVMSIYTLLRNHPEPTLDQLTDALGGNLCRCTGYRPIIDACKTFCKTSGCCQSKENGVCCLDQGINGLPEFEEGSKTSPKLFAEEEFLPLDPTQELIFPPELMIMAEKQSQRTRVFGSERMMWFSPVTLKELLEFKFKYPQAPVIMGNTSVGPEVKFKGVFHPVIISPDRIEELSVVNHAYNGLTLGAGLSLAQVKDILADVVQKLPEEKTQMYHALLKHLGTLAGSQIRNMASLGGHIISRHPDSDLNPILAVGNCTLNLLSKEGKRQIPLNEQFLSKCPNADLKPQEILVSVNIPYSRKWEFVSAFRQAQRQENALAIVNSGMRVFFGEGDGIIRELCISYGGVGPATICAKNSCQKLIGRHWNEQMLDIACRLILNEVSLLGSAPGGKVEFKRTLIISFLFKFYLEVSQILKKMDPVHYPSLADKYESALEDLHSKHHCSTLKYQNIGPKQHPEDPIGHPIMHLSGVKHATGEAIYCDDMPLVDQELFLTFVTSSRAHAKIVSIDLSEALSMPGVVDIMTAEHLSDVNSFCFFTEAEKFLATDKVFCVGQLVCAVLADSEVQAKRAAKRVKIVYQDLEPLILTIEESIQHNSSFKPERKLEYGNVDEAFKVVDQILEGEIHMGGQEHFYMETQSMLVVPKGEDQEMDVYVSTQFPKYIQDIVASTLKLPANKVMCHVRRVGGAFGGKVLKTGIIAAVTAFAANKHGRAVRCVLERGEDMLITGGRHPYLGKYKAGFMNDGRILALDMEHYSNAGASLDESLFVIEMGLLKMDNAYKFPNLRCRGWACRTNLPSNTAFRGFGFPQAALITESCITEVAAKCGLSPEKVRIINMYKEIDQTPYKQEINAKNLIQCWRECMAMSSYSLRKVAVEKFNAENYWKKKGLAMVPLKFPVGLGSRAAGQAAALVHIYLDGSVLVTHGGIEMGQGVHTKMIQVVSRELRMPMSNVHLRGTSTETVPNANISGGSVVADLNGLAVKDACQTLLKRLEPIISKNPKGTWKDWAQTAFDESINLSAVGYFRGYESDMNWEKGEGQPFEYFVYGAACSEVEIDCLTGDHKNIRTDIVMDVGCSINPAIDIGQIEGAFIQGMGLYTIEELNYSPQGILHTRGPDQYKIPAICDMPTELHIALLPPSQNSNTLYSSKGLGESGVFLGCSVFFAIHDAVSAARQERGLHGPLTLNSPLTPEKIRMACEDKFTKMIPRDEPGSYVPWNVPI

[2] = target: T1, Aldehyde oxidase; assay: Drug level in human liver S9 fraction assessed as aldehyde oxidase-mediated compound formation treated with 10 uM N-carbamimidoyl-5-cyclopropyl-1-(quinolin-6-yl)-1H-pyrazole-4-carboxamide by spectrometry
[3] = target: T1, Aldehyde oxidase; assay: Drug level in human liver S9 fraction assessed as aldehyde oxidase-mediated compound formation treated with 10 uM N-carbamimidoyl-5-cyclopropyl-1-(quinolin-4-yl)-1H-pyrazole-4-carboxamide by spectrometry

## N=C(N)NC(=O)c1cnn(-c2cccc3[nH]c(=O)[nH]c23)c1C1CC1
[1]
  Drug metabolism: metabolite_detected

## N=C(N)NC(=O)c1cnn(-c2ccc3[nH]c(=O)ccc3c2)c1C1CC1
[2]
  Drug metabolism: metabolite_detected

## N=C(N)NC(=O)c1cnn(-c2cc(=O)[nH]c3ccccc23)c1C1CC1
[3]
  Drug metabolism: metabolite_detected
